Results: patent US20220015402A1, “Mint Flavor Compositions” (The Procter & Gamble Company, priority 2020, published 2022)

Legend:
[1] = Comparison of cooling attributes of (−)-menthol and racemic menthol in a toothpaste (CREST Cavity formulation); assay type: in vivo
Description: The following data helps support the use of racemic menthol to reduce costs of mint flavor compositions herein described. From internal unpublished research, Table B compares replacing (−)-menthol with a racemic menthol in a 1:1 in a toothpaste formulation. Such a direct replacement is not preferred given the reduced cooling profile and olfactory differences; however, a portion of L-menthol is preferably replaced by racemic-menthol to gain cost efficiency while minimizing impact to the overall mint flavor profiles.
Table B is a comparison of attributes between (—)-menthol and racemic menthol in a toothpaste context (using CREST Cavity formulation).

[2] = Expert sensory testing of racemic menthol vs (−)-menthol in toothpaste (CREST Cavity) with standard spearmint flavor; assay type: in vivo
Description: In separate, unpublished internal experiments, perceptual experiences of racemic menthol are quantified via expert sensory testing. The use of a standard spearmint flavor (minimizing extra menthol contribution) compared racemic menthol to (−)-menthol in a toothpaste formulation (CREST Cavity). There are several sensory observations taken from these experiments. […] These aromatic notes appear during brushing and disappear after 5-10 minutes post expectoration and are more pronounced as concentrations increase.

CC1CCC(C(C)C)C(O)C1 (racemic) [Racemic Menthol, racemic menthol]
Potency compared to L-Menthol [1]: ~0.65-0.7x | Time Point at Maximum Cooling [1]: ~1 min | Maximum Cooling (0-60 scale) ([1]; 60 = greatest amount of cooling, 0 = least): 35 | Maximum Longevity ([1]; cooling): Up to 20 minutes | less potent than (−)-menthol for cooling [2]: 25-30%
